The term EC50 denotes the concentration that produces a half-maximal response.

The assay addresses CFTR (Homo sapiens, UniProt P13569). In words: Membrane potential dye, Enteroid Assay A. The format is cell-based. To be noted: for Ent. A Max Activity: chloride transport as % of triple combination control (Enteroid Assay A); for EC50: human enteroid cells, 18-24 hours, acute 10 μM forskolin and 300 nM ivacaftor, read-out: Ent. A EC50. On the procedure: Base medium (ADF+++) consisted of Advanced DMEM/Ham's F12, 2 mM Glutamax, 10 mM HEPES, […] penicillin/streptomycin.
Intestinal enteroid maintenance medium (IEMM) consisted of ADF+++, 1× B27 supplement, 1× N2 supplement, 1.25 mM N-acetyl cysteine, 10 mM Nicotinamide, 50 ng/mL hEGF, 10 nM Gastrin, 1 μg/mL hR-spondin-1, 100 ng/mL hNoggin, TGF-b type 1 inhibitor A-83-01, 100 μg/mL Primocin, 10 μM P38 MAPK inhibitor SB202190.
Bath 1 Buffer consisted of 1 mM MgCl2, 160 mM NaCl, 4.5 mM KCl, 10 mM HEPES, 10 mM Glucose, 2 mM CaCl2).
Chloride Free Buffer consisted of 1 mM Magnesium Gluconate, 2 mM Calcium Gluconate, 4.5 mM Potassium Gluconate, 160 mM Sodium Gluconate, 10 mM HEPES, 10 mM Glucose.
BathI Dye Solution consisted of Bath 1 Buffer, 0.04% Pluronic F127, 20 μM Methyl Oxonol, 30 μM CaCCinh-A01, 30 μM Chicago Sky Blue.
Chloride Free Dye Solution consisted of Chloride Free Buffer, 0.04% Pluronic F127, 20 μM Methyl Oxonol, 30 μM CaCCinh-A01, 30 μM Chicago Sky Blue.
Chloride Free Dye Stimulation Solution consisted of Chloride Free Dye Solution, 10 μM forskolin, 100 μM IBMX, and 300 nM Compound III.
Human intestinal epithelial enteroid cells were obtained from the Hubrecht Institute for Developmental Biology and Stem Cell Research, Utrecht, The Netherlands and expanded in T-Flasks as previously described (Dekkers J F, Wiegerinck C L, de Jonge H R, Bronsveld I, Janssens H M, de Winter-de Groot K M, Brandsma A M, de Jong N W M, Bijvelds M J C, Scholte B J, Nieuwenhuis E E S, van den Brink S, Clevers H, van der Ent C K, Middendorp S and M Beekman J M. A functional CFTR assay using primary cystic fibrosis intestinal organoids. Nat Med. 2013 July;19(7):939-45.).
3. Enteroid Cell Harvesting and Seeding
Cells were recovered in cell recovery solution, collected by centrifugation at 650 rpm for 5 min at 4° C., resuspended in TrypLE and incubated for 5 min at 37° C. Cells were then collected by centrifugation at 650 rpm for 5 min at 4° C. and resuspended in IEMM containing 10 μM ROCK inhibitor (RI). The cell suspension was passed through a 40 μm cell strainer and resuspended at 1×10^6 cells/mL in IEMM containing 10 μM RI. Cells were seeded at 5000 cells/well into multi-well plates and incubated for overnight at 37° C., 95% humidity and 5% CO2 prior to assay.
4. Membrane Potential Dye, Enteroid Assay A
Enteroid cells were incubated with test compound in IEMM for 18-24 hours at 37° C., 95% humidity and 5% CO2. […] Briefly, cells were washed 5 times in Bath 1 Buffer. Bath 1 Dye Solution was added, and the cells were incubated for 25 min at room temperature. Following dye incubation, cells were washed 3 times in Chloride Free Dye Solution. Chloride transport was initiated by addition of Chloride Free Dye Stimulation Solution and the fluorescence signal was read for 15 min. […] Chloride transport was then expressed as a percentage of the chloride transport following treatment with 3 μM N-[(6-amino-2-pyridyl)sulfonyl]-6-(3-fluoro-5-isobutoxy-phenyl)-2-[(4S)-2,2,4-trimethylpyrrolidin-1-yl]pyridine-3-carboxamide, 3 μM (R)-1-(2,2-difluorobenzo[d][1,3]dioxol-5-yl)-N-(1-(2,3-dihydroxypropyl)-6-fluoro-2-(1-hydroxy-2-methylpropan-2-yl)-1H-indol-5-yl)cyclopropanecarboxamide and 300 nM acute N-[2,4-bis(1,1-dimethylethyl)-5-hydroxyphenyl]-1,4-dihydro-4-oxoquinoline-3-carboxamide triple combination control (% Activity).

Read-outs that look alike come from different tables or passages of the source.

Chain of CFTR (P13569 with tags, fused parts or gaps DEL508-508): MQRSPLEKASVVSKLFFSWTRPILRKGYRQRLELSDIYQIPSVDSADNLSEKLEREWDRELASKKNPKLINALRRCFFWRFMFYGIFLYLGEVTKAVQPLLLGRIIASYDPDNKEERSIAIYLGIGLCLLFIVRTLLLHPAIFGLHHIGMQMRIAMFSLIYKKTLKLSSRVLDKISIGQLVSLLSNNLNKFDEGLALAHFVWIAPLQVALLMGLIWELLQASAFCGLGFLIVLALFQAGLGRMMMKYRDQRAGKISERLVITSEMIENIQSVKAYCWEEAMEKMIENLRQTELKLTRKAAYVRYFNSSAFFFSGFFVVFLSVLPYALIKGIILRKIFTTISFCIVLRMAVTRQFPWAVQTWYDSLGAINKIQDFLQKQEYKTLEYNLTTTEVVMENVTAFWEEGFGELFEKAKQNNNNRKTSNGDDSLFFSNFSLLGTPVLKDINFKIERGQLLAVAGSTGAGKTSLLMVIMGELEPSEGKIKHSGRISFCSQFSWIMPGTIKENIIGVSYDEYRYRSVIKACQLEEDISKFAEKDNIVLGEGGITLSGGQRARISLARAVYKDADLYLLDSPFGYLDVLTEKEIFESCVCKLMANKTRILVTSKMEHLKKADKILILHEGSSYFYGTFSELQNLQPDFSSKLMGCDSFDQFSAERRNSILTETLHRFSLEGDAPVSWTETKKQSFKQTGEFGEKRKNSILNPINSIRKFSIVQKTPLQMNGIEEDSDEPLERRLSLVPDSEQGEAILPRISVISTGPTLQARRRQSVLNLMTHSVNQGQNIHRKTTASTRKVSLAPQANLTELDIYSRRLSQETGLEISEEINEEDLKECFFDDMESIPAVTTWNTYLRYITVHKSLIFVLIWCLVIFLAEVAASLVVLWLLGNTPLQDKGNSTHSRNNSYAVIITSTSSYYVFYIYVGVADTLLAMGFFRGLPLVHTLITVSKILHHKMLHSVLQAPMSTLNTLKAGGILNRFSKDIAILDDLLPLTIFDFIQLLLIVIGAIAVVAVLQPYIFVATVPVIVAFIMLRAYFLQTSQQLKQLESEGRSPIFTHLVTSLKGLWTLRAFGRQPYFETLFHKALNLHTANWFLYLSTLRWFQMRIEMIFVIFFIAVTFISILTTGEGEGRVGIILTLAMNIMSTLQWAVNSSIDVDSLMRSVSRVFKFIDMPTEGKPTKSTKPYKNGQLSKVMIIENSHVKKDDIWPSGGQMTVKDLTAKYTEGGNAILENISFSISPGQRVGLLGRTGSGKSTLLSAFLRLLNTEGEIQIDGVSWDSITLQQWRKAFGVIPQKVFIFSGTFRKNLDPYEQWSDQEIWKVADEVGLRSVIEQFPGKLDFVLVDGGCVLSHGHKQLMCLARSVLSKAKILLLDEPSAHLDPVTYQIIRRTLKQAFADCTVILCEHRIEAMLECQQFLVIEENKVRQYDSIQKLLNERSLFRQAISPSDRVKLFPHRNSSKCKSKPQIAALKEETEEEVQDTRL

Take `Cc1cccc(C)c1-c1cc2nc(n1)NS(=O)(=O)c1cccc(c1)C(=O)N(Cc1cnc3ccccn13)[C@H](CC(C)C)CO2` [Compound 368]: under “Table 6”, the “Ent. A Max Activity” value is given as “+++ (+++ is >60%)” and the EC50 was under 1000 nM.

For `Cc1cccc(C)c1-c1cc2nc(n1)NS(=O)(=O)c1cccc(c1)C(=O)N(Cc1ccc(C(C)(C)C)cc1)[C@H](CC(C)C)CO2` [Compound 425], under “Table 6”, the “Ent. A Max Activity” value is given as “+++ (+++ is >60%)” and the concentration giving a half-maximal response (EC50) was under 1000 nM.

For `Cc1cccc(C)c1-c1cc2nc(n1)NS(=O)(=O)c1cccc(c1)C(=O)N(C)CC(c1ccc(-c3ccccc3)cn1)O2` (stereo not shown) [Compound 513], for the setting “Table 6”, the “Ent. A Max Activity” value is reported as “+++ (+++ is >60%)” and the 50% effective concentration (EC50) lay in the range of 1000 to 3000 nM.

For the compound `Cc1cccc(C)c1-c1cc2nc(n1)NS(=O)(=O)c1cccc(c1)C(=O)N(C)CC(CN1C3CCC[C@H]1CC3)O2` (stereo partly shown) [Compound 1015], where the note is “Table 6”, the “Ent. A Max Activity” value is “+ (+ is <30%)”.

On to `Cc1cccc(C)c1-c1cc2nc(n1)NS(=O)(=O)c1cccc(c1)CN(Cc1cc(C)c3[nH]ncc3c1)[C@H](CC(C)C)CO2` [Compound 1027], for which, for the setting “Table 7”, the “Ent. A Max Activity” value is “+++ (+++ is >60%)” and the EC50 is under 1000 nM.

On to `Cc1cccc(C)c1-c1cc2nc(n1)NS(=O)(=O)c1cccc(c1)C(=O)N(C)CC(c1ccc(C3=CCN(C)CC3)cc1)O2` (stereo not shown) [Compound 676], for which, where the note is “Table 6”, the “Ent. A Max Activity” value is listed as “++ (++ is 30-60%)” and the EC50 is 3000 to 30000 nM.

`Cc1cccc(C)c1-c1cc2nc(n1)NS(=O)(=O)c1cccc(c1)C(=O)N(Cc1ccncc1)CCO2` [Compound 977]: where the note is “Table 6”, the “Ent. A Max Activity” value was “+++ (+++ is >60%)” and the EC50 was in the range of 3000 to 30000 nM.

As for `Cc1ccccc1CN1C(=O)c2cccc(c2)S(=O)(=O)Nc2nc(cc(-c3c(C)cccc3C)n2)OC[C@H]1CC(C)C` [Compound 356], under “Table 6”, the “Ent. A Max Activity” value is “+++ (+++ is >60%)” and the half-maximal effective concentration (EC50) was under 1000 nM.

In the case of `Cc1cccc(C)c1-c1cc2nc(n1)NS(=O)(=O)c1cccc(c1)C(=O)N(CC1CC3C=C[C@@H]1C3)[C@H](CC(C)C)CO2` (stereo partly shown) [Compound 351], under “Table 6”, the “Ent. A Max Activity” value is given as “+++ (+++ is >60%)” and the EC50 was under 1000 nM.

For the compound `Cc1cccc(C)c1-c1cc2nc(n1)NS(=O)(=O)c1cccc(c1)C(=O)N(Cc1ccccc1)[C@H](CCC1(C(F)(F)F)CC1)CO2` [Compound 853], for the setting “Table 6”, the “Ent. A Max Activity” value was “++ (++ is 30-60%)” and the half-maximal effective concentration (EC50) was under 1000 nM.

`Cc1cccc(C)c1-c1cc2nc(n1)NS(=O)(=O)c1cccc(c1)C(=O)N(Cc1cc3n(n1)CCNC3=O)[C@H](CC(C)C)CO2` [Compound 41, (11R)-6-(2,6-dimethylphenyl)-11-isobutyl-2,2-dioxo-12-[(4-oxo-6,7-dihydro-5H-pyrazolo[1,5-a]pyrazin-2-yl)methyl]-9-oxa-2λ^6-thia-3,5,12,19-tetrazatricyclo[12.3.1.14,8]nonadeca-1(18),4(19),5,7,14,16-hexaen-13-one]: where the note is “Table 6”, the “Ent. A Max Activity” value is listed as “+++ (+++ is >60%)” and the EC50 was under 1000 nM.

Turning to `Cc1cccc(C)c1-c1cc2nc(n1)NS(=O)(=O)c1cccc(c1)C(=O)N(Cc1ccc(N3CC[C@@H](O)C3)nc1)[C@H](CC(C)C)CO2` [Compound 955], for the setting “Table 7”, the “Ent. A Max Activity” value is on record as “+++ (+++ is >60%)” and the concentration for a half-maximal effect (EC50) is under 1000 nM.

Turning to `Cc1cccc(C)c1-c1cc2nc(n1)NS(=O)(=O)c1cccc(c1)C(=O)N(C)CC(c1ccc(C3=CCOCC3)cc1)O2` (stereo not shown) [Compound 670], where the note is “Table 7”, the “Ent. A Max Activity” value is recorded as “++ (++ is 30-60%)” and the half-maximal effective concentration (EC50) lay within 1000 to 3000 nM.

With `Cc1cccc(C)c1-c1cc2nc(n1)NS(=O)(=O)c1cccc(c1)C(=O)N(CCC(C)C)[C@H](CC(C)C)CO2` [Compound 369], where the note is “Table 6”, the “Ent. A Max Activity” value is “+++ (+++ is >60%)” and the EC50 was under 1000 nM.

Turning to `Cc1cccc(C)c1-c1cc2nc(n1)NS(=O)(=O)c1cccc(c1)C(=O)N(Cc1ccccc1)[C@H](CC(C)C)CO2` [Compound 862], where the note is “Table 6”, the “Ent. A Max Activity” value is “+++ (+++ is >60%)” and the concentration for a half-maximal effect (EC50) is under 1000 nM.

In the case of `Cc1cccc(C)c1-c1cc2nc(n1)NS(=O)(=O)c1cccc(c1)C(=O)N(Cc1ccc(NCCN(C)C)nc1)[C@H](CC(C)C)CO2` [Compound 944], for the setting “Table 7”, the “Ent. A Max Activity” value is recorded as “+++ (+++ is >60%)” and the half-maximal effective concentration (EC50) was under 1000 nM.

For `CCN(CCO)c1ccc(CN2C(=O)c3cccc(c3)S(=O)(=O)Nc3nc(cc(-c4c(C)cccc4C)n3)OC[C@H]2CC(C)C)cn1` [Compound 935], for the setting “Table 7”, the “Ent. A Max Activity” value is listed as “+++ (+++ is >60%)” and the EC50 was under 1000 nM.

Consider `Cc1cccc(C)c1-c1cc2nc(n1)NS(=O)(=O)c1cccc(c1)CN(Cc1ccccc1OC(C)C)[C@H](CC(C)C)CO2` [Compound 1036], for which, for the setting “Table 7”, the “Ent. A Max Activity” value was “++ (++ is 30-60%)” and the concentration giving a half-maximal response (EC50) is under 1000 nM.

`COC(=O)CCCN1C(=O)c2cccc(c2)S(=O)(=O)Nc2nc(cc(-c3c(C)cccc3C)n2)OC[C@H]1CC(C)C` [Compound 367]: for the setting “Table 6”, the “Ent. A Max Activity” value is listed as “+++ (+++ is >60%)” and the concentration for a half-maximal effect (EC50) was under 1000 nM.

As for `Cc1cccc(C)c1-c1cc2nc(n1)NS(=O)(=O)c1cccc(c1)C(=O)N(Cc1ccc(N3CCCC(O)C3)nc1)[C@H](CC(C)C)CO2` (stereo partly shown) [Compound 963], where the note is “Table 7”, the “Ent. A Max Activity” value is “+++ (+++ is >60%)” and the concentration for a half-maximal effect (EC50) is under 1000 nM.

Regarding `COc1ccc(CN2C(=O)c3cccc(c3)S(=O)(=O)Nc3nc(cc(-c4c(C)cccc4C)n3)OC[C@H]2CC2(C(F)(F)F)CC2)cc1` [Compound 678], where the note is “Table 7”, the “Ent. A Max Activity” value is given as “++ (++ is 30-60%)” and the EC50 was under 1000 nM.

Take `Cc1cccc(C)c1-c1cc2nc(n1)NS(=O)(=O)c1cccc(c1)C(=O)N(C)[C@H](CC(C)C)[C@H](C)O2` [Compound 991]: where the note is “Table 6”, the “Ent. A Max Activity” value is reported as “+++ (+++ is >60%)” and the EC50 is under 1000 nM.

Turning to `Cc1cccc(C)c1-c1cc2nc(n1)NS(=O)(=O)c1cccc(c1)C(=O)N(CCC(C)(C)C)[C@H](C)CO2` [Compound 987], for the setting “Table 7”, the “Ent. A Max Activity” value is “+ (+ is <30%)” and the concentration for a half-maximal effect (EC50) was under 1000 nM.

Consider `Cc1cccc(C)c1-c1cc2nc(n1)NS(=O)(=O)c1cccc(c1)C(=O)N(Cc1ccc(C3=CCN(C)CC3)cc1)[C@H](CC(C)C)CO2` [Compound 86, (11R)-6-(2,6-Dimethylphenyl)-11-isobutyl-12-[[4-(1-methyl-3,6-dihydro-2H-pyridin-4-yl)phenyl]methyl]-2,2-dioxo-9-oxa-2λ^6-thia-3,5,12,19-tetrazatricyclo[12.3.1.14,8]nonadeca-1(18),4(19),5,7,14,16-hexaen-13-one], for which, under “Table 6”, the “Ent. A Max Activity” value is listed as “+++ (+++ is >60%)” and the EC50 was under 1000 nM.

Take `Cc1cccc(C)c1-c1cc2nc(n1)NS(=O)(=O)c1cccc(c1)C(=O)N(CCC(C)(C)C)[C@H](CC(F)(F)F)CO2` [Compound 985]: for the setting “Table 7”, the “Ent. A Max Activity” value is “++ (++ is 30-60%)” and the 50% effective concentration (EC50) is under 1000 nM.

As to `Cc1cccc(C)c1-c1cc2nc(n1)NS(=O)(=O)c1cccc(c1)C(=O)N(C)[C@H](CC(C)C)C(c1ccccn1)O2` (stereo partly shown) [Compound 337], under “Table 7”, the “Ent. A Max Activity” value was “+++ (+++ is >60%)” and the concentration for a half-maximal effect (EC50) was under 1000 nM.

`Cc1cccc(C)c1-c1cc2nc(n1)NS(=O)(=O)c1cccc(c1)CN(Cc1cnc(C3CCCCC3)nc1)[C@H](CC(C)C)CO2` [Compound 1033]: under “Table 7”, the “Ent. A Max Activity” value is listed as “++ (++ is 30-60%)” and the 50% effective concentration (EC50) is under 1000 nM.

`Cc1cccc(C)c1-c1cc2nc(n1)NS(=O)(=O)c1cccc(c1)C(=O)N(C)C[C@H](c1ccc(-c3ccc(C(C)(C)C)cc3)cn1)O2` [Compound 510]: for the setting “Table 7”, the “Ent. A Max Activity” value was “+++ (+++ is >60%)” and the EC50 is under 1000 nM.

These data come from patent publication US20240150377A1, “MODULATORS OF CYSTIC FIBROSIS TRANSMEMBRANE CONDUCTANCE REGULATOR” (VERTEX PHARMACEUTICALS INCORPORATED, priority 2020, published 2024).
